Assay results taken from PubChem BioAssay (NCI).
“And” between values parts separate entries of the source, which are not always exact repeats. Equal values may be shown once.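 Briefly, cells in 96-well plates were exposed to five compound concentrations for 48 h, and endpoints were estimated by linear interpolation. Abbreviation: GI50, concentration required for 50% inhibition of growth. TGI: concentration producing complete growth inhibition.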

Assays:
Assay in all cases: inhibition of tumour cell growth, NCI panel, 48 h
A549 NSCLC = tested on: A549 NSCLC
ACHN renal = tested on: ACHN renal
COLO 205 colon = tested on: COLO 205 colon
HCC-2998 colon = tested on: HCC-2998 colon
MDA-MB-231 breast = tested on: MDA-MB-231 breast
OVCAR-8 ovarian = tested on: OVCAR-8 ovarian
RPMI-8226 leukemia = tested on: RPMI-8226 leukemia
SW-620 colon = tested on: SW-620 colon
UACC-257 melanoma = tested on: UACC-257 melanoma
UO-31 renal = tested on: UO-31 renal

SMILES	TGI (A549 NSCLC) [µM]	TGI (ACHN renal) [µM]	TGI (COLO 205 colon)	TGI (HCC-2998 colon)	TGI (MDA-MB-231 breast)	TGI (OVCAR-8 ovarian)	TGI (RPMI-8226 leukemia)	TGI (SW-620 colon) [µM]	TGI (UACC-257 melanoma)	TGI (UO-31 renal)	GI50 (A549 NSCLC)	GI50 (COLO 205 colon)	GI50 (UO-31 renal)	GI50 (ACHN renal)	GI50 (HCC-2998 colon)	GI50 (OVCAR-8 ovarian)	GI50 (RPMI-8226 leukemia)	GI50 (SW-620 colon)	GI50 (UACC-257 melanoma)
CC1(C)C/C=C\CCC(O)C(O)CCC(C)(C)C1=O (stereo not given)	> 100	> 100	> 100 µM	> 100 µM	> 100 µM	> 100 µM	> 100 µM	> 100	> 100 µM	> 100 µM	–	–	–	–	–	–	–	–	–
N#C[C@H](c1nc2ccccc2[nH]1)c1nc2ccccc2nc1Cl	> 100	> 46	40 µM	> 60.9 µM	35.3 µM	> 100 µM	36.7 µM	29.5	> 62.5 µM	> 76.7 µM	–	–	–	–	–	–	–	–	–
O=C1C=C(NCCc2ccc(O)cc2)C(=O)C=C1NCCc1ccc(O)cc1	> 100	> 100	> 100 µM	> 100 µM	> 100 µM	> 100 µM	> 100 µM	> 100	> 100 µM	> 100 µM	–	–	–	–	–	–	–	–	–
O=C1CSC2(CC(/C=C/c3ccccc3[N+](=O)[O-])=NN2c2cccc(S(=O)(=O)O)c2)N1c1nc2ccccc2s1 (stereo not given)	52.9	44.2	> 75 µM	> 75 µM	32 µM	28.6 µM	43.5 µM	> 75	> 75 µM	25.1 µM	–	–	–	–	–	–	–	–	–
O=C1CN2CCN(CC2)CC(=O)Nc2ccc(cc2)S(=O)(=O)c2ccc(cc2)NC(=O)CN2CCN(CC2)CC(=O)Nc2ccc(cc2)S(=O)(=O)c2ccc(cc2)N1	> 100	> 100	> 100 µM	> 100 µM	43.1 µM	> 100 µM	> 80.8 µM	50.7	> 100 µM	> 100 µM	–	–	–	–	–	–	–	–	–
O=C1OCC(CN2CCC(n3c(=O)[nH]c4ccccc43)CC2)=C1c1ccccc1	> 100	89.6	28.1 µM	77.2 µM	79.3 µM	31.6 µM	56.1 µM	> 100	47.3 µM	35.2 µM	–	–	–	–	–	–	–	–	–
CCOC(=O)C1=CN(Cc2ccccc2)C2ON=C(c3ccc(Cl)cc3)C2C1 (stereo not given)	> 59.6	> 65.2	> 64.1 µM	> 100 µM	> 61.6 µM	> 67.4 µM	> 100 µM	> 65.7	> 66.8 µM	52.5 µM	–	–	–	–	–	–	–	–	–
c1ccc2c[n+](Cc3ccnc4ccccc34)ccc2c1	> 100	> 100	> 100 µM	> 100 µM	> 100 µM	> 100 µM	> 100 µM	> 100	> 100 µM	> 100 µM	–	–	–	–	–	–	–	–	–
O=C1N(c2ccccc2)N=C2c3ccncc3C3=NN(c4ccccc4)C(=O)C123 (stereo not given)	> 100	> 100	6.12 µM	> 88 µM	> 100 µM	> 100 µM	> 100 µM	> 100	> 100 µM	> 100 µM	–	–	–	–	–	–	–	–	–
CCOc1ccnc2c(OC)c(C)c3nc4ccccc4nc3c12	> 100	> 100	> 100 µM	> 100 µM	> 100 µM	> 100 µM	> 100 µM	> 100	> 100 µM	> 100 µM	–	–	–	–	–	–	–	–	–
O=c1oc2ccc([N+](=O)[O-])cc2cc1-c1csc(-c2ccccc2)n1	> 100	> 100	> 100 µM	> 100 µM	> 100 µM	> 100 µM	> 100 µM	> 100	> 100 µM	> 100 µM	–	–	–	–	–	–	–	–	–
CNC(=S)c1nnsc1N	> 100	> 100	> 100 µM	> 100 µM	> 100 µM	> 100 µM	> 100 µM	> 100	> 100 µM	> 100 µM	–	–	–	–	–	–	–	–	–
CCOC(=O)CCNC(=O)c1cc(C)cc2c1Oc1c(cc(C)cc1C(=O)NCCC(=O)OCC)S2	> 100	> 100	> 100 µM	> 100 µM	> 100 µM	> 100 µM	> 100 µM	> 100	> 100 µM	> 100 µM	–	–	–	–	–	–	–	–	–
CN(C)C=Nc1cccc2c1NSN2	> 100	> 100	> 100 µM	> 100 µM	> 100 µM	> 100 µM	> 100 µM	> 100	> 100 µM	> 100 µM	–	–	–	–	–	–	–	–	–
O=[N+]([O-])C(=C(\Cl)NCCO)/C(Cl)=C(/Cl)Br	21.1	8.9	2.74 µM	11.1 µM	3.99 µM	7.31 µM	6.14 µM	2.68	4.4 µM	10.6 µM	–	–	–	–	–	–	–	–	–
COc1ccc(-c2c(C#N)c(N)n(C3OC(COC(C)=O)C(OC(C)=O)C(OC(C)=O)C3OC(C)=O)c(=S)c2C#N)cc1 (stereo not given)	> 100	> 100	> 100 µM and 43.2 µM	> 100 µM and 38.2 µM	> 100 µM and 71.2 µM	> 100 µM and 75.4 µM	> 100 µM and 68.8 µM	> 100	> 100 µM and 44.5 µM	> 100 µM and 38.9 µM	36.2 µM and > 100 µM	> 100 µM and 21.2 µM	42.4 µM and 16.7 µM	–	–	–	–	–	–
CCN(CC)C(=O)CCNC(C)Cc1c[nH]c2ccccc12 (stereo not given)	> 100	> 100	> 100 µM	> 100 µM	> 100 µM	> 100 µM	> 100 µM	> 100	> 100 µM	> 100 µM	–	–	–	–	–	–	–	–	–

SMILES	TGI (A549 NSCLC) [µM]	TGI (ACHN renal) [µM]	TGI (COLO 205 colon)	TGI (HCC-2998 colon)	TGI (MDA-MB-231 breast)	TGI (OVCAR-8 ovarian)	TGI (RPMI-8226 leukemia)	TGI (SW-620 colon) [µM]	TGI (UACC-257 melanoma)	TGI (UO-31 renal)	GI50 (A549 NSCLC)	GI50 (COLO 205 colon)	GI50 (UO-31 renal)	GI50 (ACHN renal)	GI50 (HCC-2998 colon)	GI50 (OVCAR-8 ovarian)	GI50 (RPMI-8226 leukemia)	GI50 (SW-620 colon)	GI50 (UACC-257 melanoma)
CC(C)[Si](CC1=CCCCC12C(=O)N(COCC[Si](C)(C)C)c1ccccc12)(C(C)C)C(C)C (stereo not given)	> 100	> 100	> 100 µM	> 100 µM	> 100 µM	> 100 µM	> 100 µM	> 100	> 100 µM	> 100 µM	–	–	–	–	–	–	–	–	–
O=c1[nH]nc(-c2ccccc2)c2[nH]c3c(c12)CCCc1ccccc1-3	25.6	38.9	22.2 µM	28 µM	52.4 µM	50.7 µM	31.2 µM	50.8	44.5 µM	34.7 µM	–	–	–	–	–	–	–	–	–
CC1=NN(c2cccc(S(=O)(=O)O)c2)C2(C1)SCC(=O)N2c1nc2ccccc2s1 (stereo not given)	> 100	> 100	> 100 µM	> 100 µM	> 100 µM	> 100 µM	> 100 µM	> 100	> 100 µM	> 100 µM	–	–	–	–	–	–	–	–	–
CC1(C)CC(=O)C(/C=N/c2nc(-c3cccc([N+](=O)[O-])c3)cs2)=C(O)C1	> 100	33.8	30.9 µM	29.1 µM	43 µM	96.2 µM	43.9 µM	25.6	49.7 µM	74.9 µM	–	–	–	–	–	–	–	–	–
Cc1csc(CP(=O)(OC(C)C)OC(C)C)n1	> 100	> 100	> 100 µM	> 100 µM	> 100 µM	> 100 µM	> 100 µM	> 100	> 100 µM	> 100 µM	–	–	–	–	–	–	–	–	–
COc1ccc2oc(=O)c(-c3nc4ccccc4s3)cc2c1	> 41.9	12.7	> 100 µM	> 100 µM	53.2 µM	36.9 µM	> 100 µM	> 100	> 100 µM	> 41.6 µM	–	–	–	–	–	–	–	–	–
COC(=O)/C=C/c1cc(OC)c2c(c1)C(C(=O)OC)C(c1ccc(O)c(OC)c1)O2 (stereo not given)	> 100	> 100	35.4 µM and 26.4 µM and 25.8 µM	48.4 µM and 25.6 µM and 21 µM	> 25.8 µM and 18.8 µM and 42.1 µM	> 100 µM and > 72.2 µM and 21.6 µM	13.6 µM and > 60.8 µM and 15.6 µM	> 100	> 100 µM and 63.2 µM	> 43.7 µM and 45.1 µM and 77.2 µM	–	17 µM and 13.1 µM and 7.32 µM	–	> 26.2 µM and 15.9 µM and 7.59 µM	24.5 µM and 10.6 µM and 5.69 µM	10.8 µM and 4.76 µM and 2.32 µM	2.94 µM and 3.93 µM and 1.69 µM	2.93 µM and 1.45 µM and 1.46 µM	> 25.9 µM and 6.49 µM
COC(=O)CC(c1ccccc1)C(C#N)(OP1(=O)OC(c2ccccc2)C(C)N1C)c1ccccc1 (stereo not given)	> 100	> 100	44.6 µM	> 100 µM	> 100 µM	> 100 µM	> 100 µM	> 100	> 100 µM	> 100 µM	–	–	–	–	–	–	–	–	–
Cc1ccc(S(=O)(=O)N/N=C2/C3CC4CCC2C4C3)cc1 (stereo not given)	> 100	> 100	> 100 µM	> 100 µM	> 100 µM	> 100 µM	> 100 µM	> 100	> 100 µM	> 100 µM	–	–	–	–	–	–	–	–	–
CCN(CC)CCCNc1c2cc(OC)ccc2nc2cccc([N+](=O)[O-])c12	0.507	0.306	0.102 µM	0.192 µM	0.319 µM	0.264 µM	0.418 µM	0.339	0.416 µM	0.174 µM	–	–	–	–	–	–	–	–	–
CC(C)N=C(NC#N)NS(=O)(=O)c1cnccc1NC1CCCCCCC1	> 100	> 100	> 100 µM	> 100 µM	> 100 µM	> 100 µM	> 100 µM	> 100	> 100 µM	> 100 µM	–	–	–	–	–	–	–	–	–
C=C(C)[C@H]1C=C[C@@H](OC(C)=O)[C@@]2(COC(C)=O)[C@H](OC(=O)CCC)[C@H]3[C@@H](OC(C)=O)[C@@H](C)C[C@]3(O)C(=O)[C@@](C)(OC(C)=O)[C@H]12	> 100	> 100	65 µM	86.5 µM	> 100 µM	> 100 µM	66.7 µM	> 100	> 100 µM	> 100 µM	–	–	–	–	–	–	–	–	–
Nc1nc(=O)n(C2CC(O)C(CO)O2)c2nc(-c3ccc(-c4ccccc4)cc3)cnc12 (stereo not given)	> 100	> 100	> 100 µM	> 100 µM	50.1 µM	> 100 µM	> 100 µM	> 100	> 100 µM	> 100 µM	–	–	–	–	–	–	–	–	–
CCOC1=NC(C(F)(F)F)(C(F)(F)F)N=C(/N=C(/N)N(C)C(C(C)C)P(=O)(OC(C)C)OC(C)C)O1 (stereo not given)	> 100	> 100	> 100 µM	> 100 µM	> 100 µM	> 100 µM	> 100 µM	> 100	> 100 µM	> 100 µM	–	–	–	–	–	–	–	–	–
[B]C(=O)NC(CC(C)C)C(=O)NC1c2ccsc2C(=O)C1O (stereo not given) (tested in a mixture with another compound)	> 100	> 100	> 100 µM	> 100 µM	> 100 µM	> 100 µM	> 100 µM	> 100	> 100 µM	> 100 µM	–	–	–	–	–	–	–	–	–
Cc1nc2ccccc2n1Cc1ccc(NC(=S)NC2CCCCC2)cc1	> 100	44.4	> 100 µM	> 100 µM	> 100 µM	> 100 µM	> 66.4 µM	> 100	> 95.1 µM	> 100 µM	–	–	–	–	–	–	–	–	–
O=C(CCCN1CCC(Nc2ccc(F)cc2)(c2nnnn2C2CCCCC2)CC1)c1ccc(F)cc1	31.6	28.6	37.1 µM	> 100 µM	36 µM	63.4 µM	34.4 µM	> 100	57.3 µM	28.4 µM	–	–	–	–	–	–	–	–	–
